In patent EP4603105A1, “PHARMACEUTICAL COMPOSITION CONTAINING CYCLIC COMPOUND HAVING SELECTIVE KRAS INHIBITORY EFFECT AGAINST HRAS AND NRAS” (CHUGAI SEIYAKU KABUSHIKI KAISHA, priority 2022, dated 2024):
Where a SMILES comes first, the peptide text is derived from it. Bridges are numbered along the chain shown (N, C = ends). [ ]: non-standard residue; d: D form. The star is where a group is joined. hPhe(3-Cl-4-CF3) = N[C@@H](CCc1ccc(C(F)(F)F)c(Cl)c1)C(=O)O; NPrPhe(4-CF3) = CCCN[C@@H](Cc1ccc(C(F)(F)F)cc1)C(=O)O; NMeGly(cPent) = CN[C@H](C(=O)O)C1CCCC1; Hyp = O=C(O)[C@@H]1C[C@@H](O)CN1; NMeD = CN[C@@H](CC(=O)O)C(=O)O; NMeL = CN[C@@H](CC(C)C)C(=O)O; Morpholide = C1CN(*)CCO1; Ac5c = NC1(C(=O)O)CCCC1; Aze = O=C(O)[C@@H]1CCN1; Ac4c = NC1(C(=O)O)CCC1; Sar = CNCC(=O)O

Tests used:
[1] = molecular target: HRAS wild-type protein (Homo sapiens, UniProt P01112); assay: Binding to HRAS by surface plasmon resonance (SPR), KD and KD ratio to KRAS
How it was run: (§1)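 Captured GDP-RAS (~100–300 RU) was exposed to increasing compound concentrations, 75 s per step, in running buffer with 10 µM GDP, 10 mM MgCl2 and 4% DMSO at pH 7.4.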

[2] = tested on: human lung cancer strain NCI-H441; format: cell-based
How it was run: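 Step one: dispense the test compound in serial DMSO dilutions. Step three: add the reagent and measure […].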

[3] = molecular target: GDP-bound NRAS wild-type protein (Homo sapiens, UniProt P01111); assay: Binding to NRAS by surface plasmon resonance (SPR), KD and KD ratio to KRAS
How it was run: as §1

[4] = ratio of KD for HRAS wild-type protein to KD for KRAS
[5] = ratio of KD for GDP-bound NRAS wild-type protein to KD for KRAS
[6] = ratio of KD value for HRAS wild-type protein to KD value for KRAS (SPR)
[7] = ratio of KD value for GDP-bound NRAS wild-type protein to KD value for KRAS (SPR)
[8] = ratio of the KD value with respect to HRAS wild-type protein to the KD value with respect to KRAS
[9] = ratio of the KD value with respect to GDP-bound NRAS wild-type protein to the KD value with respect to KRAS

Sequence of GDP-bound NRAS wild-type protein (P01111 whole entry): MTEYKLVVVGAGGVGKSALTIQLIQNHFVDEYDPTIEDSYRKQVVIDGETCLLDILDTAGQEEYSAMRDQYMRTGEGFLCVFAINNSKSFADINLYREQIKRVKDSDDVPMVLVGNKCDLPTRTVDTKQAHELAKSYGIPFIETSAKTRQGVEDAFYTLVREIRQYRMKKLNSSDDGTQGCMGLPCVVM
Sequence of HRAS wild-type protein (P01112 whole entry): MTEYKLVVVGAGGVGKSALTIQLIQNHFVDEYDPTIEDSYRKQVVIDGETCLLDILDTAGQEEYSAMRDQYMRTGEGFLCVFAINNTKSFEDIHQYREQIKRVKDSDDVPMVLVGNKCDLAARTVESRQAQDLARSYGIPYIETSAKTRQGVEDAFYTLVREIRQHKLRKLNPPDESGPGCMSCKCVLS

| SMILES | IC50 [2] | HRAS /KRAS [1, 4] | NRAS /KRAS [3, 5] | HRAS /KRAS [1, 6] | NRAS /KRAS [3, 7] | HRAS /KRAS [1, 8] | NRAS /KRAS [3, 9] |
| --- | --- | --- | --- | --- | --- | --- | --- |
| CCC[C@H]1C(=O)N[C@@H]([C@@H](C)CC)C(=O)N(C)CC(=O)N(C)[C@H]2C/C=C\CCN(C2=O)[C@@H](Cc2ccc(C(F)(F)F)cc2)C(=O)N(C)CC(=O)N[C@@H](CCc2ccc(CC)c(Cl)c2)C(=O)N2C[C@H](OCC)C[C@H]2C(=O)NC2(CC(C)(C)C2)C(=O)N(C)[C@@H](C2CCCC2)C(=O)N(C)[C@H](C(=O)N(C)C)CC(=O)N1C [PP2848] | 0.0289 µM | A (a compound having 10 or more and less than 20 is denoted as A) | A (a compound having 10 or more and less than 20 is denoted as A) |  |  |  |  |
| CCO[C@@H]1C[C@H]2C(=O)NC3(CCC3)C(=O)N(C)[C@@H](C(CC)CC)C(=O)N(C)[C@H](C(=O)N(C)C)CC(=O)N(C)[C@@H](CC(C)C)C(=O)N[C@@H]([C@@H](C)CC)C(=O)N(C)CC(=O)N(C)[C@H]3C/C=C\CCN(C3=O)[C@@H](Cc3ccc(F)cc3)C(=O)N(C)CC(=O)N[C@@H](CCc3cc(F)c(C(F)(F)F)c(F)c3)C(=O)N2C1 [PP1519] | 0.0782 µM |  |  | A (a compound having 10 or more and less than 20 is denoted as A) | A (a compound having 10 or more and less than 20 is denoted as A) |  |  |
| CC[C@H](C)[C@@H]1NC(=O)[C@H](CC(C)C)N(C)C(=O)C[C@@H](C(=O)N2CCOCC2)N(C)C(=O)[C@H](C2CCCC2)N(C)C(=O)C2(CCC2)NC(=O)[C@@H]2C[C@@H](OCCC(F)(F)F)CN2C(=O)[C@H](CCc2cc(F)c(C(F)(F)F)c(F)c2)NC(=O)CN(C)C(=O)[C@H](Cc2ccc(C(F)(F)F)cc2)N2CCCC[C@@H](C2=O)N(C)C(=O)CN(C)C1=O [PP0998] | 0.0197 µM | B (a compound having 3 or more and less than 10 is denoted as B) | B (a compound having 3 or more and less than 10 is denoted as B) |  |  |  |  |
| CCCN1C(=O)CN(C)C(=O)CNC(=O)[C@H]([C@@H](C)CC)NC(=O)[C@H](CC(C)C)N(C)C(=O)C[C@@H](C(=O)N(C)C)N(C)C(=O)[C@H](C2CCCC2)N(C)C(=O)C2(CCC2)NC(=O)[C@@H]2C[C@@H](OCC)CN2C(=O)[C@H](CCc2ccc(C(F)(F)F)c(Cl)c2)NC(=O)CN(C)C(=O)[C@@H]1Cc1ccc(C(F)(F)F)cc1 [PP0422] ([NMeL]IG[Sar][NPrPhe(4-CF3)][Sar][hPhe(3-Cl-4-CF3)][Hyp](Et)[Ac4c][NMeGly(cPent)][NMeD]-NMe2; lactam N-11) | 0.0016 µM |  |  |  |  | B (a compound having 3 or more and less than 10 is denoted as B) | B (a compound having 3 or more and less than 10 is denoted as B) |
| CCCOC[C@H]1C(=O)N[C@@H]([C@@H](C)CC)C(=O)N2CCC[C@H]2C(=O)N(C)[C@H]2C/C=C\CCN(C2=O)[C@@H](Cc2ccc(C)cc2)C(=O)N(C)CC(=O)N[C@@H](CCc2ccc(C(F)(F)F)c(OC)c2)C(=O)N2C[C@H](OCC)C[C@H]2C(=O)N(C)C2(CCC2)C(=O)N(C)[C@@H](C(CC)CC)C(=O)N(C)[C@H](C(=O)N(C)C)CC(=O)N1C [PP2331] | 0.0118 µM |  |  |  |  | A (a compound having 10 or more and less than 20 is denoted as A) | AA (a compound having 20 or more is denoted as AA) |
| CCCN1C(=O)CN(C)C(=O)[C@@H]2CCN2C(=O)[C@H]([C@@H](C)CC)NC(=O)[C@H](CC(C)C)N(C)C(=O)C[C@@H](C(=O)N2CCOCC2)NC(=O)[C@H](C2CCCC2)N(C)C(=O)C2(CCCC2)NC(=O)[C@@H]2CCCN2C(=O)[C@H](CCc2ccc(C(F)(F)F)c(Cl)c2)NC(=O)CN(C)C(=O)[C@@H]1Cc1ccc(C(F)(F)F)cc1 [PP0337] ([NMeL]I[Aze][Sar][NPrPhe(4-CF3)][Sar][hPhe(3-Cl-4-CF3)]P[Ac5c][NMeGly(cPent)]D-Morpholide; lactam N-11) | 0.333 µM | B (a compound having 3 or more and less than 10 is denoted as B) | B (a compound having 3 or more and less than 10 is denoted as B) |  |  |  |  |
| CCO[C@@H]1C[C@H]2C(=O)NC3(CCC3)C(=O)N(C)[C@@H](C3CCCC3)C(=O)N(C)[C@H](C(=O)N(C)C)CC(=O)N(C)[C@@H](CC3CCCC3)C(=O)N[C@@H]([C@@H](C)CC)C(=O)N(C)CC(=O)N(C)[C@H]3C/C=C\CCN(C3=O)[C@@H](Cc3ccc(F)cc3)C(=O)N(C)CC(=O)N[C@@H](CCc3cc(F)c(C(F)(F)F)c(F)c3)C(=O)N2C1 [PP1531] | 0.0139 µM |  |  | B (a compound having 3 or more and less than 10 is denoted as B) | A (a compound having 10 or more and less than 20 is denoted as A) |  |  |

Further lines, with some results ahead:

| IC50 [2] | SMILES | HRAS /KRAS [1, 4] | NRAS /KRAS [3, 5] | HRAS /KRAS [1, 6] | NRAS /KRAS [3, 7] | HRAS /KRAS [1, 8] | NRAS /KRAS [3, 9] |
| --- | --- | --- | --- | --- | --- | --- | --- |
| 0.0446 µM | CCO[C@@H]1C[C@H]2C(=O)NC3(CCCC3)C(=O)N(C)[C@@H](C3CCCC3)C(=O)N(C)[C@H](C(=O)N(C)C)CC(=O)N(C)[C@@H](C)C(=O)N[C@@H]([C@@H](C)CC)C(=O)N(C)CC(=O)N(C)[C@H]3C/C=C\CCN(C3=O)[C@@H](Cc3ccc(C(F)(F)F)cc3)C(=O)N(C)CC(=O)N[C@@H](CCc3cc(F)c(C(F)(F)F)c(F)c3)C(=O)N2C1 [PP1104] | A (a compound having 10 or more and less than 20 is denoted as A) | A (a compound having 10 or more and less than 20 is denoted as A) |  |  |  |  |
| 0.005 µM | CC[C@H](C)[C@@H]1NC(=O)[C@H](CC)N(C)C(=O)C[C@@H](C(=O)N(C)C)N(C)C(=O)[C@H](C2CCCC2)N(C)C(=O)C2(CCCC2)N(C)C(=O)[C@@H]2CCCN2C(=O)[C@H](CCc2cc(F)c(C(F)(F)F)c(F)c2)NC(=O)CN(C)C(=O)[C@H](Cc2ccc(C)cc2)N2CC/C=C\C[C@@H](C2=O)N(C)C(=O)CN(C)C1=O [PP1807] |  |  | B (a compound having 3 or more and less than 10 is denoted as B) | A (a compound having 10 or more and less than 20 is denoted as A) |  |  |
| 0.012 µM | CCO[C@@H]1C[C@H]2C(=O)NC3(CCC3)C(=O)N(C)[C@@H](C3CCCC3)C(=O)N(CCC3CCC3)[C@H](C(=O)N(C)C)CC(=O)N(C)[C@@H](CC)C(=O)N[C@@H]([C@@H](C)CC)C(=O)N(C)CC(=O)N(C)[C@H]3CCCCN(C3=O)[C@@H](Cc3ccc(C(F)(F)F)cc3)C(=O)N(C)CC(=O)N[C@@H](CCc3cc(F)c(C(F)(F)F)c(F)c3)C(=O)N2C1 [PP0645] |  |  |  |  | B (a compound having 3 or more and less than 10 is denoted as B) | B (a compound having 3 or more and less than 10 is denoted as B) |
| 0.0177 µM | CC[C@H](C)[C@@H]1NC(=O)[C@H](CC)N(C)C(=O)C[C@@H](C(=O)N(C)CC)N(C)C(=O)[C@H](C2CCCC2)N(C)C(=O)C2(CCC2)NC(=O)[C@@H]2C[C@@H](C)CN2C(=O)[C@H](CCc2ccc(C(F)(F)F)c(OC)c2)NC(=O)CN(C)C(=O)[C@H](Cc2ccc(C)cc2)N2CC/C=C\C[C@@H](C2=O)N(C)C(=O)CN(C)C1=O [PP1855] |  |  | A (a compound having 10 or more and less than 20 is denoted as A) | AA (a compound having 20 or more is denoted as AA) |  |  |
| 0.02 µM | CCO[C@@H]1C[C@H]2C(=O)NC3(CCCC3)C(=O)N(C)[C@@H](C3CCCC3)C(=O)N(C)[C@H](C(=O)N(C)C)CC(=O)N(C)[C@@H](CC(C)C)C(=O)N[C@@H]([C@@H](C)CC)C(=O)N(C)CC(=O)N(C)[C@H]3C/C=C\CCN(C3=O)[C@@H](Cc3ccc(C(F)(F)F)cc3)C(=O)N(C)CC(=O)N[C@@H](CCc3cc(F)c(Cl)c(F)c3)C(=O)N2C1 [PP2269] |  |  |  |  | A (a compound having 10 or more and less than 20 is denoted as A) | A (a compound having 10 or more and less than 20 is denoted as A) |
| 0.173 µM | CCCN1C(=O)CN(C)C(=O)CNC(=O)[C@H]([C@@H](C)CC)NC(=O)[C@H](CC(C)C)N(C)C(=O)C[C@@H](C(=O)N2CCOCC2)NC(=O)[C@H](C2CCCC2)N(C)C(=O)C2(CCC2)NC(=O)[C@@H]2CCCN2C(=O)[C@H](CCc2ccc(C(F)(F)F)c(Cl)c2)NC(=O)CN(C)C(=O)[C@@H]1Cc1ccc(C(F)(F)F)cc1 [PP0326] ([NMeL]IG[Sar][NPrPhe(4-CF3)][Sar][hPhe(3-Cl-4-CF3)]P[Ac4c][NMeGly(cPent)]D-Morpholide; lactam N-11) | B (a compound having 3 or more and less than 10 is denoted as B) | B (a compound having 3 or more and less than 10 is denoted as B) |  |  |  |  |
| 0.135 µM | CC[C@H](C)[C@@H]1NC(=O)[C@H](COC)N(C)C(=O)C[C@@H](C(=O)N2CCOCC2)N(C)C(=O)[C@H](C2CCCC2)N(C)C(=O)C2(CCCC2)NC(=O)[C@@H]2CCCN2C(=O)[C@H](CCc2cc(F)c(C(F)(F)F)c(F)c2)NC(=O)CN(C)C(=O)[C@H](Cc2ccc(C(F)(F)F)cc2)N2CCCCC[C@@H](C2=O)N(C)C(=O)CN(C)C1=O [PP0845] | B (a compound having 3 or more and less than 10 is denoted as B) | B (a compound having 3 or more and less than 10 is denoted as B) |  |  |  |  |
| 0.0042 µM | CCO[C@@H]1C[C@H]2C(=O)NC3(CC(C)(C)C3)C(=O)N(C)[C@@H](C(CC)CC)C(=O)N(C)[C@H](C(=O)N(C)C)CC(=O)N(C)[C@H]3CCCCCc4ccc(cc4)C[C@@H](C(=O)N(C)CC(=O)N[C@@H](CCc4ccc(C(F)(F)F)c(OC)c4)C(=O)N2C1)N1CC/C=C\C[C@@H](C1=O)N(C)C(=O)CN(C)C(=O)[C@H]([C@@H](C)CC)NC3=O [PP3035] | A (a compound having 10 or more and less than 20 is denoted as A) | AA (a compound having 20 or more is denoted as AA) |  |  |  |  |
